From patent publication US5422342A, “2,3-disubstituted isoxazolidines, agents containing them and their use” (Hoechst Aktiengesellschaft, priority 1986, dated 1995)
Values joined by “and” are separate entries in the source; they are usually repeats but may differ in a detail not shown here. Equal entries are not always repeated.

target: prolyl hydroxylase (Homo sapiens, UniProt P13674); assay: prolyl hydroxylase enzyme assay with preincubation (suicide inhibition); format: biochemical; settings: concentration which inactivates 50% of the enzyme after one hour; preincubation with iron(II) ions, α-ketoglutarate and ascorbate
Method: The inhibitory action can be determined in an enzyme assay analogous to the method of B. Peterkofsky and R. DiBlasio Anal. Biochem. 66, 279-286 (1975). This entails underhydroxylated collagen being enzymatically hydroxylated with prolyl hydroxylase in the presence of iron(II) ions, α-ketoglutarate and ascorbate.
The suicidal nature of the inhibition is established by preincubation of the enzyme in the presence of iron(II) ions, α-ketoglutarate and ascorbate with the inhibitors for various times, and then determination of the remaining activity of the enzyme in the presence of a peptide substrate. It is possible to use for determination of the activity both the method of Peterkofsky and DiBlasio described above and other methods such as described by K. I. Kivirikko and R. Myllyla, Meth. Enzym. 82, 245-304 (1982). The concentration which inactivates 50% of the enzyme after one hour is stated.

prolyl hydroxylase, sequence (P13674 18-534): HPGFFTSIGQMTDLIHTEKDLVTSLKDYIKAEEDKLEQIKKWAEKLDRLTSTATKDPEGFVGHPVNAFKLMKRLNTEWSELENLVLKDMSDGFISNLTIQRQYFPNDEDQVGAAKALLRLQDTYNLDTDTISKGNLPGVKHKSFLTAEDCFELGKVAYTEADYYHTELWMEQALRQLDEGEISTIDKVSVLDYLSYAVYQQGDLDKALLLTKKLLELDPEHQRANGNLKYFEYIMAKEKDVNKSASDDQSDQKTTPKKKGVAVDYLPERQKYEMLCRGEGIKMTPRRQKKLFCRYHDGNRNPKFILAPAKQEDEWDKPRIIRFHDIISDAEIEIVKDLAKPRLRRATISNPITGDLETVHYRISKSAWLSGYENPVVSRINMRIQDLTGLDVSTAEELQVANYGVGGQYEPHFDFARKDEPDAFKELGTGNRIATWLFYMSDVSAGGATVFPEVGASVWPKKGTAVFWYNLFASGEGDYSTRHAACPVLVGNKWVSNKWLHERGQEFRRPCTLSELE
prolyl hydroxylase, sequence (P07237 18-508 partner): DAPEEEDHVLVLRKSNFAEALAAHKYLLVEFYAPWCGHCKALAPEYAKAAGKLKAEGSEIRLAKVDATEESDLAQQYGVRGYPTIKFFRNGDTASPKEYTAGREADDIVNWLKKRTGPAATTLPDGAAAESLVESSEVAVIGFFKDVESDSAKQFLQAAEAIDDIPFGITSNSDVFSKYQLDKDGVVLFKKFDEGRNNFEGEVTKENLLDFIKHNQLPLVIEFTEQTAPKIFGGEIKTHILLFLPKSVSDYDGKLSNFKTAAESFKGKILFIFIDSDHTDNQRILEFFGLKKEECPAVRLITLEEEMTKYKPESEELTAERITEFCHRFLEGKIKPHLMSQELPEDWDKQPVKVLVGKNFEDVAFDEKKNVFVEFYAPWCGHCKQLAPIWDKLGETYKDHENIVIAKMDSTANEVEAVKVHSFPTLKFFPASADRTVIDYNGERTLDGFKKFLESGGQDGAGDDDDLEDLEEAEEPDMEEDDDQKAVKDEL

Molecule | ID50 [60 min; μmol/l] [µmol/L]
O=C(CNC(=O)C1CCON1C(=O)Cc1ccccc1)OCc1ccc([N+](=O)[O-])cc1 (centres unmarked) [4-Nitrobenzyl ester of N-phenylacetyl-Opr-Gly] | 540.0
CCN(CC)C(=O)CNC(=O)C1CCON1C(=O)C1CCCN1C(C)=O (centres unmarked) [Ac--Pro--Opr--Gly--N(C2 H5)2] | 16900.0
CC(=O)N1CCCC1C(=O)N1OCCC1C(=O)NCC(=O)NCc1ccccc1 (centres unmarked) [Ac--Pro--Opr--Gly--NH--CH2 --C6 H5] | 6000.0
CC(=O)N1CCCC1C(=O)N1OCCC1C(=O)NCC(=O)NCCc1ccccc1 (centres unmarked) [Ac--Pro--Opr--Gly--NH--CH2 --CH2 --C6 H5] | 4900.0
CC(=O)N1CCCC1C(=O)N1OCCC1C(=O)NCC(=O)OCc1ccccc1 (centres unmarked) [Ac--Pro--Opr--Gly--OBzl] | 60.0
CC(=O)N1CCCC1C(=O)N1OCCC1C(=O)NCC(=O)OC(C)(C)C (centres unmarked) [Ac--Pro--Opr--Gly--OtBu] | 8000.0
O=C(CNC(=O)C1CCON1C(=O)CCc1ccccc1)OCc1ccccc1 (centres unmarked) [C6 H5 --CH2 --CH2 --CO--Opr--Gly--OBzl, N-3-Phenylpropionyl-Opr--Gly--OBzl] | 2000.0
O=C(CNC(=O)C1CCON1C(=O)Cc1ccccc1)OCc1ccccc1 (centres unmarked) [C6 H5 --CH2 --CO--Opr--Gly--OBzl] | 1000.0
O=C(CNC(=O)C1CCON1Cc1ccccc1)OCc1ccccc1 (stereo not drawn) [C6 H5 --CH2 --Opr--Gly--OBzl, C6 H5 --CH2 -Opr-Gly-OBzl] | 610.0
CS(=O)(=O)CCOC(=O)NC(CCC(=O)OCc1ccccc1)C(=O)N1OCCC1C(=O)NCC(=O)OCc1ccccc1 (centres unmarked) [Msc--Glu(OBzl)--Opr--Gly--OBzl] | 30.0
CC(NC(=O)OCc1ccccc1)C(=O)N1OCCC1C(=O)NCC(=O)OCc1ccccc1 (centres unmarked) [Z--(D)--Ala--Opr--Gly--OBzl, Z--(D)-- Ala--Opr--Gly--OBzl] | > 10000.0
C[C@H](NC(=O)OCc1ccccc1)C(=O)N1OCCC1C(=O)NCC(=O)OCc1ccccc1 (some centres unmarked) [Z--Ala--Opr--Gly--OBzl] | 3.0
CC(NC(=O)OCc1ccccc1)C(=O)N1OCCC1C(=O)NCC(=O)O (centres unmarked) [Z--Ala--Opr--Gly--OH] | 330.0
CC(NC(=O)OCc1ccccc1)C(=O)N1OCCC1C(=O)NCC(=O)OC(C)(C)C (centres unmarked) [Z--Ala--Opr--Gly--OtBu, Z--Ala--Opr--Gly--OtBU] | 40.0
O=C(O)CCC(NC(=O)OCc1ccccc1)C(=O)N1OCCC1C(=O)NCC(=O)OCc1ccccc1 (centres unmarked) [Z--Glu--Opr--Gly--OBzl] | 5000.0
O=C(CNC(=O)C1CCON1C(=O)C(CCCCN1C(=O)c2ccccc2C1=O)NC(=O)OCc1ccccc1)OCc1ccccc1 (centres unmarked) [Z--Lys(Pht)--Opr--Gly--OBzl] | 11.0
O=C(CNC(=O)C1CCON1C(=O)C(Cc1ccccc1)NC(=O)OCc1ccccc1)OCc1ccc(F)cc1 (centres unmarked) [Z--Phe--Opr--Gly--O--CH2 --C6 H4-4-F] | 0.8
O=C(CNC(=O)C1CCON1C(=O)C(Cc1ccccc1)NC(=O)OCc1ccccc1)OCCc1ccccc1 (centres unmarked) [Z--Phe--Opr--Gly--O--CH2 --CH2 --C6 H5] | 0.9
O=C(CNC(=O)C1CCON1C(=O)C(Cc1ccccc1)NC(=O)OCc1ccccc1)OCc1ccccc1 (stereo not drawn) [Z--Phe--Opr--Gly--OBzl, Z-Phe-Opr-Gly-OBzl] | 0.8
N#Cc1ccc(C(=O)CNC(=O)C2CCON2C(=O)C(Cc2ccccc2)NC(=O)OCc2ccccc2)cc1 (centres unmarked) [Z--Phe--Opr--NH--CH2 --CO--C6 H4-4-CN, ZPheOprNHCH2 COC6 H4-4-CN] | 1.1
O=C(NC(Cc1ccccc1)C(=O)N1OCCC1C(=O)NCC(=O)c1ccccc1)OCc1ccccc1 (centres unmarked) [Z--Phe--Opr--NH--CH2 --CO--C6 H5, ZPheOprNHCH2 COC6 H5] | 2.4
CN(CC(=O)OCc1ccccc1)C(=O)C1CCON1C(=O)C(Cc1ccccc1)NC(=O)OCc1ccccc1 (centres unmarked) [Z--Phe--Opr--Sar-- OBzl, Z--Phe--Opr--Sar--OBzl] | > 10000.0
O=C(CNC(=O)C1CCON1C(=O)C1Cc2ccccc2CN1C(=O)OCc1ccccc1)OCc1ccccc1 (centres unmarked) [Z--Tic--Opr--Gly--OBzl] | 1.5
O=C(CNC(=O)C1CCON1C(=O)C(Cc1ccc(O)cc1)NC(=O)OCc1ccccc1)OCc1ccccc1 (centres unmarked) [Z--Tyr--Opr--Gly--OBzl] | 2.4
CC(C)C(NC(=O)OCc1ccccc1)C(=O)N1OCCC1C(=O)NCC(=O)OCc1ccccc1 (centres unmarked) [Z--Val--Opr--Gly--OBzl] | 40.0
O=C(CCc1ccccc1)CNC(=O)C1CCON1C(=O)C(Cc1ccccc1)NC(=O)OCc1ccccc1 (stereo not drawn) [Z-Phe-Opr-NH--CH2 --CO--CH2 --CH2 --C6 H5] | 3.4
HPheOprNHCH2 COC6 H4 -4-Cl [H--Phe--Opr--NH--CH2 --CO--C6 H4-4-Cl] | 15.5
Z-Phe(r)-Opr-Gly-OBzl [Z--Phe(r)--Opr--Gly--OBzl] | 1.1

test system: calvarial culture; assay: inhibitory action in calvarial culture (hydroxyproline/proline quotient); format: cell-based; settings: concentration giving 50% decrease in the hydroxyproline/proline quotient on feeding with 14C-proline
Description: The inhibitory action can also be determined in cell or tissue culture. It is possible to use for this purpose fibroblasts or other collagen-producing cells, or calvariae or other collagen-producing organs. Table 2 is a compilation of the inhibitory action of some substances according to the invention in calvarial culture. The concentration which results in a 50% decrease in the hydroxyproline/proline quotient on feeding with ^14 C-proline is stated.

Molecule | IC50
O=C(CNC(=O)C1CCON1C(=O)Cc1ccccc1)OCc1ccc([N+](=O)[O-])cc1 (centres unmarked) [4-Nitrobenzyl ester of N-phenylacetyl-Opr-Gly] | 2500 µM
CC(=O)N1CCCC1C(=O)N1OCCC1C(=O)NCC(=O)OC(C)(C)C (centres unmarked) [Ac--Pro--Opr--Gly--OtBu] | 7500 µM
O=C(CNC(=O)C1CCON1C(=O)Cc1ccccc1)OCc1ccccc1 (centres unmarked) [C6 H5 --CH2 --CO--Opr--Gly--OBzl] | 2000 µM
C[C@H](NC(=O)OCc1ccccc1)C(=O)N1OCCC1C(=O)NCC(=O)OCc1ccccc1 (some centres unmarked) [Z--Ala--Opr--Gly--OBzl] | 1650 µM and 2500 µM
CC(C)(C)OC(=O)CNC(=O)C1CCON1C(=O)C1CCCN1C(=O)OCc1ccccc1 (centres unmarked) [Z--Pro--Opr--Gly--OtBu] | 550 µM
CC(C)C(NC(=O)OCc1ccccc1)C(=O)N1OCCC1C(=O)NCC(=O)OCc1ccccc1 (centres unmarked) [Z--Val--Opr--Gly--OBzl] | 380 µM

test system: C1q biosynthesis by macrophages; assay: not given; settings: W. Muller et al., FEBS Lett. 90, 218f (1978); cited from earlier work

Molecule | effect on C1q biosynthesis by macrophages
c1ccc(-c2ccccn2)nc1 [α,α-dipyridyl] | inhibition of C1q biosynthesis by macrophages
